Assay results: US20160199463A1, “HDAC2 DEFENDS VASCULAR ENDOTHELIUM FROM INJURY” (The Johns Hopkins University, priority 2014, published 2016)

What was measured:
NO production in HAECs = assay: Nitric oxide production in HAECs (DAF-DA fluorescence, Siever's NO analyzer); type: cell-based, human; settings: TSA 1 μmol/L
Description: Nitric Oxide levels in HAEC were determined using DAF-DA as per manufacture instructions (Life Sciences). Briefly, cells were loaded with DAF-DA (5 μM) for 20 min and washed 3 times with PBS and incubated for another 30 min in phenol-free media. Fluorescence was determined using a Nikon TE-200 epifluorescence microscope. Images were captured with a Rolera EMC2 camera (Q-Imaging, BC, Canada) with Velocity software (PerkinElmer, Lexington, Mass.). NO production in the cell culture media was also determined by measuring Nitrite levels using a Siever's NO analyzer. NO radicals were measured in cell media collected after 24 hours of treatment using the Oxiselect assay (Cell Biolabs, San Diego, Calif.).

Arg2 mRNA [1] = assay: Arg2 mRNA in HAECs (RT-PCR, real-time PCR); type: cell-based, human; settings: preincubated with TSA
Description: Total RNA was extracted from segments of mice aortas and HAEC using Trizol and PureLink (Invitrogen). RNA was then reverse transcribed with oligo dT primers to obtain cDNA and quantitative real time PCR (Applied Biosystems) was performed using SYBR Green Supermix mix (Applied Biosystems) whereas semiquantitative RTPCR was performed using conventional Biorad PCR machine and the following primer sets: Real Time PCR data are expressed as “fold change”, which is calculated as 2-ΔΔCt.

eNOS = eNOS expression in HAECs (immunoblot); type: cell-based, human; settings: 1 μmol/L, 18 hours
Description: After 48 hrs of HAEC cells transfection, cells were lysed in ice cold RIPA lysis buffer consisting of 20 mM Tris-HCl at pH 7.5, 150 mM NaCl, 1 mM EDTA, 1 mM EGTA, 1% NP40, 1% sodium deoxycholate, 1 mM Na3VO4, 2.5 mM sodium pyrophosphate, 1 mM 3-glycerophosphate, 1 μg/mL leupeptin, and a 1:1000 diluted protease inhibitor cocktail (Sigma). For immunoprecipitation studies, whole cell lysate lysates were centrifuged at 14,000×g and supernatants were precleared by incubation with Protein A/G-agarose beads for 2 h at 4° C. with rocking. Agarose beads were then pelleted by centrifugation at 1,000×g. FLAG-Arg2 in precleared lysates were immunoprecipitated by incubation overnight at 4° C. with rocking following addition of anti-FLAG antibody (10 μl). Immune complexes were eluted in 2×SDS sample buffer by boiling for 5 minutes before loading into SDS-PAGE. Western blotting analysis was performed by transferring the SDS gel onto a PVDF membrane and visualized using secondary antibodies conjugated to alkaline phosphatases.

Arg2 mRNA [2] = assay: Arg2 mRNA in isolated mice aorta (real-time PCR); type: cell-based, mouse; settings: TSA 200 nmol/L, 18 hours
Description: Total RNA was extracted from segments of mice aortas and HAEC using Trizol and PureLink (Invitrogen). RNA was then reverse transcribed with oligo dT primers to obtain cDNA and quantitative real time PCR (Applied Biosystems) was performed using SYBR Green Supermix mix (Applied Biosystems) whereas semiquantitative RTPCR was performed using conventional Biorad PCR machine and the following primer sets:
Real Time PCR data are expressed as “fold change”, which is calculated as 2-ΔΔCt.

[3] = test system: aortic rings of wild-type mice; assay: Force tension (wire) myography, vascular relaxation of isolated wild-type mouse aortic rings; type: cell-based
Description: (§1) Mouse aorta was isolated and cleaned in ice-cold Krebs-Ringer-bicarbonate solution containing the following (in mM): 118.3 NaCl, 4.7 KCl, 1.6 CaCl2, 1.2 KH2 PO4, 25 NaHCO3, 1.2 MgSO4, and 11.1 dextrose. The aorta was immersed in a bath filled with constantly oxygenated Krebs buffer at 37° C. Equal size thoracic aortic rings (2 mm) were mounted using a microscope, ensuring no damage to the smooth muscle or endothelium. One end of the aortic rings was connected to a transducer, and the other to a micromanipulator. Aorta was passively stretched to an optimal resting tension using the micromanipulator, after which a dose of 60 mM KCl was administered, and repeated after a wash with Krebs buffer. After these washes, all vessels were allowed to equilibrate for 20-30 min in the presence of indomethacin (3 μM). Phenylephrine (1 μM) was administered to induce vasoconstriction. A dosedependent response (1 nM to 10 μM), with the muscarinic agonist, ACH or nitric oxide donor, SNP, was then performed as necessary. The responses were repeated in the presence of inhibitors. Relaxation responses were calculated as a percentage of tension following pre-constriction. Sigmoidal dose-response curves were fitted to data with the minimum constrained to 0. Two to four rings were isolated from each animal and the number of animals in each group (n) was 6.

[4] = test system: aortic rings from Arg2−/− mice; assay: Force tension (wire) myography, vascular relaxation of aortic rings from Arg2-/- mice; type: cell-based, mouse; settings: Arg2−/− mice; TSA 200 nmol/L; n=6
Description: as §1

[5] = test system: arginase activity in mice aortas; assay: Arginase activity in isolated segments of mice aorta; type: cell-based, mouse; settings: TSA 200 nmol/L

CC(/C=C/C(=O)NO)=C\[C@@H](C)C(=O)c1ccc(N(C)C)cc1 [TSA, trichostatin A]
NO production (NO production in HAECs): significantly decreased
Arg2 mRNA (Arg2 mRNA [1]): substantially upregulated
eNOS expression (eNOS): negligible effect
Arg2 mRNA (Arg2 mRNA [2]): substantially upregulated
SNP-mediated (endothelium-independent) vasorelaxation versus vehicle-only control ([3]; TSA 200 nmol/L or MGCD0103 1 μmol/L, 18 hours): no significant difference
Emax acetylcholine-mediated (endothelium-dependent) vasorelaxation ([3]; TSA 200 nmol/L, 18 hours preincubation, n=6): 31.24±7.8%
Emax endothelial cell-dependent vasorelaxation [4]: 66.3±7.54%
arginase activity [5]: robust increase
